Results as given in patent publication US9309254B2, “Pyrimidinyl-diazospiro compounds” (CONVERGENCE PHARMACEUTICALS LIMITED, priority 2012, dated 2016).
Counter-ions that a name gives are not always drawn. Like-named read-outs stand apart in the source and are kept apart here.

Biological target: T1, hNaV1.7 (Homo sapiens, UniProt Q15858)
T1 construct: expressed in transfected cells; host or cells: HEK293
Assay: QPatch NaV1.7 assay
Type: cell-based
Details: HEK293-hNaV1.7 cells, QPatch16x
Procedure: The compounds of the invention were tested in a QPatch NaV1.7 assay.
HEK293-hNaV1.7 cells were grown in DMEM-F12+10% FBS culture media at 37° C. At a confluency of 50-70% cells were dissociated from culture flasks & triturated to ensure unicellular cell suspension; cell density was measured & adjusted to 2-3×10^6 cells/ml. Recordings were obtained using QPatch16x. The external solution was (in mM): NaCl, 128; KCl, 5; MgCl2, 2; CaCl2, 2; Glucose, 30; HEPES, 15; pH 7.3, 305-315 mOsm. Following seal formation and whole-cell access using internal solution (containing in mM: CsF, 135; EGTA/CsOH, 1/5; HEPES 10; NaCl, 10; pH 7.3, 310-320mOsM), voltage pulse protocols were applied. Initially a steady state inactivation voltage protocol was used to determine the half-maximal voltage for steady state inactivation (V1/2 SSI). Two holding voltages were used to determine test drug inhibition: −90 mV, where most of the channels are in a closed state; and V1/2 SSI, where half of the channels are inactivated. Currents were elicited every 10 seconds by stepping to a membrane potential of 0 mV for 20 ms. Four-point cumulative concentration responses were derived by determining the peak current amplitude at each concentration of test drug over 120 second application. Curves were fitted with the Hill equation yielding pIC50 values at −90 mV and V1/2 SSI holding potentials.

[1] = holding voltage V1/2 SSI, where half of the channels are inactivated, read-out: QP Nav1.7 SSI vhalf pIC50 (converted)
[2] = holding voltage −90 mV, where most of the channels are in a closed state, read-out: QP Nav1.7 - 90 mV pIC50 (converted)

T1 sequence (Q15858 whole entry): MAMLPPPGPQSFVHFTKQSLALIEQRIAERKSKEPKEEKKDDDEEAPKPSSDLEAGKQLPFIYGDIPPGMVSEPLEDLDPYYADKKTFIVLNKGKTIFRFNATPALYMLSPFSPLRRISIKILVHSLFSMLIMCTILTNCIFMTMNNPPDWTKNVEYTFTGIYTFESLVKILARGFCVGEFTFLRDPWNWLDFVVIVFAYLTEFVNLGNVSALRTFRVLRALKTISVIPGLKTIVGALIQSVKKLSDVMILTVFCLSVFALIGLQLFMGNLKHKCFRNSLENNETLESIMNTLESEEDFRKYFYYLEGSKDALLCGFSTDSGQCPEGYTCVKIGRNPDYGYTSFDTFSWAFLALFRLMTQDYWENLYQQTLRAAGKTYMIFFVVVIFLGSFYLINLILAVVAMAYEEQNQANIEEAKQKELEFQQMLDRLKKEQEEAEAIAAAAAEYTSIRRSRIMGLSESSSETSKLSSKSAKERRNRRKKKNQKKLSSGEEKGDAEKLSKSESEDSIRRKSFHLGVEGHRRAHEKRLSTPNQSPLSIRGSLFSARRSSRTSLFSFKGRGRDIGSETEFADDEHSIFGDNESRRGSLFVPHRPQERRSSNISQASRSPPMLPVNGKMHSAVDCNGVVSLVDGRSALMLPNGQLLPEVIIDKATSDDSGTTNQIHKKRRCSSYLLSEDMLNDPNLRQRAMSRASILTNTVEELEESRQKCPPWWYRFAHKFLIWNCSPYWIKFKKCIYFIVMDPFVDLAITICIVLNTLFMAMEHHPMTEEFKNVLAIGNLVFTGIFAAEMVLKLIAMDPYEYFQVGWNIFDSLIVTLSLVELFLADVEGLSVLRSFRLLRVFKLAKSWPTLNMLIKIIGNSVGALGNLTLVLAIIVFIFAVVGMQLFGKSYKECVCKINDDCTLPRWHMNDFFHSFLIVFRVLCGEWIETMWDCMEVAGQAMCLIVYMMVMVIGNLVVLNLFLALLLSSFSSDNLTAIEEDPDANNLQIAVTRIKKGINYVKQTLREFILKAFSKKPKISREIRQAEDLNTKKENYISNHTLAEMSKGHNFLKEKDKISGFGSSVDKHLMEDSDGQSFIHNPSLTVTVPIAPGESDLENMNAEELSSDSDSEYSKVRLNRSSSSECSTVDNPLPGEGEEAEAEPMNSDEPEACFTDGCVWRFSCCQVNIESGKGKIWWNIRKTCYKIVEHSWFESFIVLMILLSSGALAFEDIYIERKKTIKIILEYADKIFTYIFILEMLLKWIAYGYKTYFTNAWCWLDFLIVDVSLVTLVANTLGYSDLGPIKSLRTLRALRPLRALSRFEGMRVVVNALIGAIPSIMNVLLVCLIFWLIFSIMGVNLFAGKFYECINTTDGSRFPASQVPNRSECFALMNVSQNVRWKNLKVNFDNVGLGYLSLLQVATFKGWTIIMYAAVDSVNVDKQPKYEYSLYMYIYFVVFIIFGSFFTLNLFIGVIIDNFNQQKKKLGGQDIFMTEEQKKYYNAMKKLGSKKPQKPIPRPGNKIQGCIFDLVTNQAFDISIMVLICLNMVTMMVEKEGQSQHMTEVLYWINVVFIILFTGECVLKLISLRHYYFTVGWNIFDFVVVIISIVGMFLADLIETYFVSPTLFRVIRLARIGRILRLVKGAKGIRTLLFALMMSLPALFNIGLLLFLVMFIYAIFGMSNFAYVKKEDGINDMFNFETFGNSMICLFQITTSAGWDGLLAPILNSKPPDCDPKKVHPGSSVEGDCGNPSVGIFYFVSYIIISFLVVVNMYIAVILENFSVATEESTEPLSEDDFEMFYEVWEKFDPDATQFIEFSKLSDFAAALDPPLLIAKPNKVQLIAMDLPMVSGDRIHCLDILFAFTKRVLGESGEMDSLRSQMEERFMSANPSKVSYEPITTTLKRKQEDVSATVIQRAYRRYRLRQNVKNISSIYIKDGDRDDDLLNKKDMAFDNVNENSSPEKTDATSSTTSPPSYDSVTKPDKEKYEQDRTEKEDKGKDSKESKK

| SMILES | IC50 [1] | IC50 [2] | QP Nav1.7 SSI vhalf pIC50 (holding voltage V1/2 SSI, where half of the channels are inactivated) |
| --- | --- | --- | --- |
| Cc1cc(-c2ccc(C(F)(F)F)cc2)nc([C@@H]2CC[C@@]3(CCN(C)C3=O)N2)n1 (single isomer, unassigned) [Example 22, hydrochloride] | 63.1 µM | 7940 µM | – |
| CN1CC[C@@]2(CC[C@H](c3nccc(-c4ccc(C(F)(F)F)cc4)n3)N2)C1=O [Example 1, (2R,5S)-7-Methyl-2-[4-[4-(trifluoromethyl)phenyl]pyrimidin-2-yl]-1,7-diazaspiro[4.4]nonan-6-one hydrochloride] | 10 µM | 126 µM | – |
| CN1CC[C@@]2(CC[C@@H](c3nccc(-c4ccc(C(F)(F)F)cc4)n3)N2)C1=O [Example 2, (2S,5S)-7-Methyl-2-[4-[4-(trifluoromethyl)phenyl]pyrimidin-2-yl]-1,7-diazaspiro[4.4]nonan-6-one hydrochloride] | 63.1 µM | 398 µM | – |
| CN1CC[C@]2(CC[C@@H](c3nccc(-c4ccc(C(F)(F)F)cc4)n3)N2)C1=O [Example 3, (2S,5R)-7-Methyl-2-[4-[4-(trifluoromethyl)phenyl]pyrimidin-2-yl]-1,7-diazaspiro[4.4]nonan-6-one hydrochloride] | 31.6 µM | 158 µM | – |
| CN1CC[C@]2(CC[C@H](c3nccc(-c4ccc(C(F)(F)F)cc4)n3)N2)C1=O [Example 4, (2R,5R)-7-Methyl-2-[4-[4-(trifluoromethyl)-phenyl]-pyrimidin-2-yl]-1,7-diazaspiro[4.4]nonan-6-one hydrochloride] | 39.8 µM | 251 µM | – |
| Cc1cc(-c2ccc(C(F)(F)F)cc2)nc([C@@H]2CC[C@]3(CCN(C)C3=O)N2)n1 [Example 5, (2S,5R)-7-Methyl-2-[4-methyl-6-[4-(trifluoromethyl)phenyl]pyrimidin-2-yl]-1,7-diazaspiro[4.4]nonan-6-one hydrochloride] | 100 µM | 79.4 µM | – |
| Cc1cc(-c2ccc(C(F)(F)F)cc2)nc([C@H]2CC[C@]3(CCN(C)C3=O)N2)n1 [Example 6, (2R,5R)-7-Methyl-2-[4-methyl-6-[4-(trifluoromethyl)phenyl]pyrimidin-2-yl]-1,7-diazaspiro[4.4]nonan-6-one hydrochloride] | 79.4 µM | 316 µM | – |
| Cc1cc(-c2ccc(C(F)(F)F)cc2)nc([C@H]2CC[C@@]3(CCN(C)C3=O)N2)n1.Cl [Example 7, (2R,5S)-7-Methyl-2-[4-methyl-6-[4-(trifluoromethyl)-phenyl]pyrimidin-2-yl]-1,7-diazaspiro[4.4]nonan-6-one hydrochloride] | – | 126 µM | 5.7 |
| CCOc1ccc(F)c(-c2cc(C)nc([C@@H]3CC[C@]4(CCN(C)C4=O)N3)n2)c1 [Example 8, (2S,5R)-2-[4-(5-Ethoxy-2-fluoro-phenyl)-6-methyl-pyrimidin-2-yl]-7-methyl-1,7-diazaspiro[4.4]nonan-6-one hydrochloride] | 2.51 µM | 39.8 µM | – |
| CCOc1ccc(F)c(-c2cc(C)nc([C@H]3CC[C@]4(CCN(C)C4=O)N3)n2)c1 [Example 9, (2R,5R)-2-[4-(5-Ethoxy-2-fluoro-phenyl)-6-methyl-pyrimidin-2-yl]-7-methyl-1,7-diazaspiro[4.4]nonan-6-one hydrochloride] | 1.58 µM | 12.6 µM | – |
| CCOc1ccc(F)c(-c2cc(C)nc([C@H]3CC[C@@]4(CCN(C)C4=O)N3)n2)c1 [Example 10, (2R,5S)-2-[4-(5-Ethoxy-2-fluoro-phenyl)-6-methyl-pyrimidin-2-yl]-7-methyl-1,7-diazaspiro[4.4]nonan-6-one hydrochloride] | 1.58 µM | 20 µM | – |
| CCOc1ccc(F)c(-c2cc(C)nc([C@@H]3CC[C@@]4(CCN(C)C4=O)N3)n2)c1 [Example 11, (2S,5S)-2-[4-(5-Ethoxy-2-fluoro-phenyl)-6-methyl-pyrimidin-2-yl]-7-methyl-1,7-diazaspiro[4.4]nonan-6-one hydrochloride] | 3.98 µM | 79.4 µM | – |
| CCOc1ccc(F)c(-c2cc(C)nc([C@H]3CC[C@]4(CCCNC4=O)N3)n2)c1 [Example 12, hydrochloride] | 2 µM | 20 µM | – |
| CCOc1ccc(F)c(-c2cc(C)nc([C@@H]3CC[C@]4(CCCNC4=O)N3)n2)c1 [Example 13, hydrochloride] | 1.58 µM | 7.94 µM | – |
| CCOc1ccc(F)c(-c2ccnc([C@H]3CC[C@]4(CCN(C)C4=O)N3)n2)c1 [Example 14, (2R,5R)-2-[4-(5-Ethoxy-2-fluoro-phenyl)pyrimidin-2-yl]-7-methyl-1,7-diazaspiro[4.4]nonan-6-one hydrochloride] | 1.26 µM | 20 µM | – |
| CCOc1ccc(F)c(-c2ccnc([C@@H]3CC[C@]4(CCN(C)C4=O)N3)n2)c1 [Example 15, (2S,5R)-2-[4-(5-Ethoxy-2-fluoro-phenyl)pyrimidin-2-yl]-7-methyl-1,7-diazaspiro[4.4]nonan-6-one hydrochloride] | 12.6 µM | 126 µM | – |
| CCOc1ccc(F)c(-c2ccnc([C@@H]3CC[C@@]4(CCN(C)C4=O)N3)n2)c1 [Example 16, (2S,5S)-2-[4-(5-Ethoxy-2-fluoro-phenyl)pyrimidin-2-yl]-7-methyl-1,7-diazaspiro[4.4]nonan-6-one hydrochloride] | 12.6 µM | 126 µM | – |
| CCOc1ccc(F)c(-c2ccnc([C@H]3CC[C@@]4(CCN(C)C4=O)N3)n2)c1 [Example 17, (2R,5S)-2-[4-(5-Ethoxy-2-fluoro-phenyl)pyrimidin-2-yl]-7-methyl-1,7-diazaspiro[4.4]nonan-6-one hydrochloride] | 10 µM | 63.1 µM | – |
| CN1CC[C@@]2(CC[C@H](c3nccc(-c4cccc(OC(F)(F)F)c4)n3)N2)C1=O [Example 18, (2R,5S)-7-Methyl-2-[4-[3-(trifluoromethoxy)phenyl]pyrimidin-2-yl]-1,7-diazaspiro[4.4]nonan-6-one hydrochloride] | 12.6 µM | 126 µM | – |
| CN1CC[C@@]2(CC[C@@H](c3nccc(-c4cccc(OC(F)(F)F)c4)n3)N2)C1=O [Example 19, (2S,5S)-7-Methyl-2-[4-[3-(trifluoromethoxy)phenyl]pyrimidin-2-yl]-1,7-diazaspiro[4.4]nonan-6-one hydrochloride] | 20 µM | 200 µM | – |
| CN1CC[C@]2(CC[C@@H](c3nccc(-c4cccc(OC(F)(F)F)c4)n3)N2)C1=O [Example 20, (2S,5R)-7-Methyl-2-[4-[3-(trifluoromethoxy)phenyl]pyrimidin-2-yl]-1,7-diazaspiro[4.4]nonan-6-one hydrochloride] | 25.1 µM | 200 µM | – |
| CN1CC[C@]2(CC[C@H](c3nccc(-c4cccc(OC(F)(F)F)c4)n3)N2)C1=O [Example 21, (2R,5R)-7-Methyl-2-[4-[3-(trifluoromethoxy)phenyl]pyrimidin-2-yl]-1,7-diazaspiro[4.4]nonan-6-one hydrochloride] | 15.8 µM | 200 µM | – |
| CC(C)Oc1ccc(-c2ccnc([C@H]3CC[C@]4(CCN(C)C4=O)N3)n2)cc1 [Example 23, (2R,5R)-2-[4-(4-Isopropoxyphenyl)pyrimidin-2-yl]-7-methyl-1,7-diazaspiro[4.4]nonan-6-one hydrochloride] | 63.1 µM | 1580 µM | – |
| CC(C)Oc1ccc(-c2ccnc([C@@H]3CC[C@]4(CCN(C)C4=O)N3)n2)cc1 [Example 24, (2S,5R)-2-[4-(4-Isopropoxyphenyl)pyrimidin-2-yl]-7-methyl-1,7-diazaspiro[4.4]nonan-6-one hydrochloride] | 20 µM | 158 µM | – |
| CC(C)Oc1ccc(-c2ccnc([C@H]3CC[C@@]4(CCN(C)C4=O)N3)n2)cc1 [Example 25, (2R,5S)-2-[4-(4-Isopropoxyphenyl)pyrimidin-2-yl]-7-methyl-1,7-diazaspiro[4.4]nonan-6-one hydrochloride] | 7.94 µM | 50.1 µM | – |
| CC(C)Oc1ccc(-c2ccnc([C@@H]3CC[C@@]4(CCN(C)C4=O)N3)n2)cc1 [Example 26, (2S,5S)-2-[4-(4-Isopropoxyphenyl)pyrimidin-2-yl]-7-methyl-1,7-diazaspiro[4.4]nonan-6-one hydrochloride] | 50.1 µM | 631 µM | – |
| Cc1cc(-c2ccc(OC(F)(F)F)cc2)nc([C@H]2CC[C@@]3(CCN(C)C3=O)N2)n1 [Example 27, (2R,5S)-7-Methyl-2-[4-methyl-6-[4-(trifluoromethoxy)phenyl]pyrimidin-2-yl]-1,7-diazaspiro[4.4]nonan-6-one hydrochloride] | 10 µM | 63.1 µM | – |
| Cc1cc(-c2ccc(OC(F)(F)F)cc2)nc([C@@H]2CC[C@@]3(CCN(C)C3=O)N2)n1 [Example 28, (2S,5S)-7-Methyl-2-[4-methyl-6-[4-(trifluoromethoxy)phenyl]pyrimidin-2-yl]-1,7-diazaspiro[4.4]nonan-6-one hydrochloride] | 50.1 µM | 631 µM | – |
